Source: patent US20210255193A1, “LYSINE REACTIVE PROBES AND USES THEREOF” (The Scripps Research Institute, priority 2017, published 2021)

How the values were obtained:
Assay in all cases: competitive isoTOP-ABPP
Type in all cases: binding
[1] = molecular target: T1, CUL2 Cullin-2 (Homo sapiens, UniProt Q13617)
T1 construct: isoTOP-ABPP experiments performed in cell lysates (in vitro); endogenous in cells; host or cells: soluble proteome of human cancer cell lines (MDA-MB-231, Ramos, Jurkat)
How it was run: (§1)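 Cell lysate (0.5 ml) was pre-treated with fragment, 50 μM for activated esters or 100 μM for guanidinylating agents, versus DMSO, then labeled 1 h at ambient temperature with 0.1 mM STP-alkyne. Light/heavy TEV tags attached by CuAAC; R = DMSO/compound MS1 peak-area ratio, median per lysine.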

[2] = molecular target: T2, FECH Ferrochelatase, mitochondrial (Homo sapiens, UniProt P22830)
T2 construct: isoTOP-ABPP experiments performed in cell lysates (in vitro); endogenous in cells; host or cells: soluble proteome of human cancer cell lines (MDA-MB-231; Ramos and Jurkat also prepared)
T2 sequence (P22830 55-423): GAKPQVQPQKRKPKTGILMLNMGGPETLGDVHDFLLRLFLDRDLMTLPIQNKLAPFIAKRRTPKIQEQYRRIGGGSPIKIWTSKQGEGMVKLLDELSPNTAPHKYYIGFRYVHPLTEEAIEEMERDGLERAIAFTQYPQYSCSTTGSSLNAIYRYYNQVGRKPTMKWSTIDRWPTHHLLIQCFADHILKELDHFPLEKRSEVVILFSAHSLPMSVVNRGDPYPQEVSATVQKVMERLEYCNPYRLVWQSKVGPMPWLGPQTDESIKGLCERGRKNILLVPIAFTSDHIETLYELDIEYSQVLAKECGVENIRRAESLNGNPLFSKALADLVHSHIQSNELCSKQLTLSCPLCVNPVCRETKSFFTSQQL
How it was run: as §1

[3] = molecular target: T3, GOLGB1 Golgin subfamily B member 1 (Homo sapiens, UniProt Q14789)
T3 construct: isoTOP-ABPP experiments performed in cell lysates (in vitro); endogenous in cells; host or cells: soluble proteome of human cancer cell lines (MDA-MB-231, Ramos, Jurkat)
How it was run: as §1

[4] = molecular target: T4, HNRNPK Heterogeneous nuclear ribonucleoprotein K (Homo sapiens, UniProt P61978)
T4 construct: isoTOP-ABPP experiments performed in cell lysates (in vitro); endogenous in cells; host or cells: soluble proteome of human cancer cell lines (MDA-MB-231, Ramos, Jurkat)
How it was run: as §1

[5] = molecular target: T5, KIAA1967 DBIRD complex subunit KIAA1967 (Homo sapiens, UniProt Q8N163)
T5 construct: isoTOP-ABPP experiments performed in cell lysates (in vitro); endogenous in cells; host or cells: soluble proteome of human cancer cell lines (MDA-MB-231; Ramos and Jurkat also prepared)
How it was run: as §1

[6] = molecular target: T6, NPEPPS Puromycin-sensitive aminopeptidase (Homo sapiens, UniProt P55786)
T6 construct: isoTOP-ABPP experiments performed in cell lysates (in vitro); endogenous in cells; host or cells: soluble proteome of human cancer cell lines (MDA-MB-231, Ramos, Jurkat)
How it was run: as §1

[7] = molecular target: T7, RINT1 RAD50-interacting protein 1 (Homo sapiens, UniProt Q6NUQ1)
T7 construct: isoTOP-ABPP experiments performed in cell lysates (in vitro); endogenous in cells; host or cells: soluble proteome of human cancer cell lines (MDA-MB-231; Ramos and Jurkat also prepared)
How it was run: as §1

T3 sequence (Q14789 whole entry): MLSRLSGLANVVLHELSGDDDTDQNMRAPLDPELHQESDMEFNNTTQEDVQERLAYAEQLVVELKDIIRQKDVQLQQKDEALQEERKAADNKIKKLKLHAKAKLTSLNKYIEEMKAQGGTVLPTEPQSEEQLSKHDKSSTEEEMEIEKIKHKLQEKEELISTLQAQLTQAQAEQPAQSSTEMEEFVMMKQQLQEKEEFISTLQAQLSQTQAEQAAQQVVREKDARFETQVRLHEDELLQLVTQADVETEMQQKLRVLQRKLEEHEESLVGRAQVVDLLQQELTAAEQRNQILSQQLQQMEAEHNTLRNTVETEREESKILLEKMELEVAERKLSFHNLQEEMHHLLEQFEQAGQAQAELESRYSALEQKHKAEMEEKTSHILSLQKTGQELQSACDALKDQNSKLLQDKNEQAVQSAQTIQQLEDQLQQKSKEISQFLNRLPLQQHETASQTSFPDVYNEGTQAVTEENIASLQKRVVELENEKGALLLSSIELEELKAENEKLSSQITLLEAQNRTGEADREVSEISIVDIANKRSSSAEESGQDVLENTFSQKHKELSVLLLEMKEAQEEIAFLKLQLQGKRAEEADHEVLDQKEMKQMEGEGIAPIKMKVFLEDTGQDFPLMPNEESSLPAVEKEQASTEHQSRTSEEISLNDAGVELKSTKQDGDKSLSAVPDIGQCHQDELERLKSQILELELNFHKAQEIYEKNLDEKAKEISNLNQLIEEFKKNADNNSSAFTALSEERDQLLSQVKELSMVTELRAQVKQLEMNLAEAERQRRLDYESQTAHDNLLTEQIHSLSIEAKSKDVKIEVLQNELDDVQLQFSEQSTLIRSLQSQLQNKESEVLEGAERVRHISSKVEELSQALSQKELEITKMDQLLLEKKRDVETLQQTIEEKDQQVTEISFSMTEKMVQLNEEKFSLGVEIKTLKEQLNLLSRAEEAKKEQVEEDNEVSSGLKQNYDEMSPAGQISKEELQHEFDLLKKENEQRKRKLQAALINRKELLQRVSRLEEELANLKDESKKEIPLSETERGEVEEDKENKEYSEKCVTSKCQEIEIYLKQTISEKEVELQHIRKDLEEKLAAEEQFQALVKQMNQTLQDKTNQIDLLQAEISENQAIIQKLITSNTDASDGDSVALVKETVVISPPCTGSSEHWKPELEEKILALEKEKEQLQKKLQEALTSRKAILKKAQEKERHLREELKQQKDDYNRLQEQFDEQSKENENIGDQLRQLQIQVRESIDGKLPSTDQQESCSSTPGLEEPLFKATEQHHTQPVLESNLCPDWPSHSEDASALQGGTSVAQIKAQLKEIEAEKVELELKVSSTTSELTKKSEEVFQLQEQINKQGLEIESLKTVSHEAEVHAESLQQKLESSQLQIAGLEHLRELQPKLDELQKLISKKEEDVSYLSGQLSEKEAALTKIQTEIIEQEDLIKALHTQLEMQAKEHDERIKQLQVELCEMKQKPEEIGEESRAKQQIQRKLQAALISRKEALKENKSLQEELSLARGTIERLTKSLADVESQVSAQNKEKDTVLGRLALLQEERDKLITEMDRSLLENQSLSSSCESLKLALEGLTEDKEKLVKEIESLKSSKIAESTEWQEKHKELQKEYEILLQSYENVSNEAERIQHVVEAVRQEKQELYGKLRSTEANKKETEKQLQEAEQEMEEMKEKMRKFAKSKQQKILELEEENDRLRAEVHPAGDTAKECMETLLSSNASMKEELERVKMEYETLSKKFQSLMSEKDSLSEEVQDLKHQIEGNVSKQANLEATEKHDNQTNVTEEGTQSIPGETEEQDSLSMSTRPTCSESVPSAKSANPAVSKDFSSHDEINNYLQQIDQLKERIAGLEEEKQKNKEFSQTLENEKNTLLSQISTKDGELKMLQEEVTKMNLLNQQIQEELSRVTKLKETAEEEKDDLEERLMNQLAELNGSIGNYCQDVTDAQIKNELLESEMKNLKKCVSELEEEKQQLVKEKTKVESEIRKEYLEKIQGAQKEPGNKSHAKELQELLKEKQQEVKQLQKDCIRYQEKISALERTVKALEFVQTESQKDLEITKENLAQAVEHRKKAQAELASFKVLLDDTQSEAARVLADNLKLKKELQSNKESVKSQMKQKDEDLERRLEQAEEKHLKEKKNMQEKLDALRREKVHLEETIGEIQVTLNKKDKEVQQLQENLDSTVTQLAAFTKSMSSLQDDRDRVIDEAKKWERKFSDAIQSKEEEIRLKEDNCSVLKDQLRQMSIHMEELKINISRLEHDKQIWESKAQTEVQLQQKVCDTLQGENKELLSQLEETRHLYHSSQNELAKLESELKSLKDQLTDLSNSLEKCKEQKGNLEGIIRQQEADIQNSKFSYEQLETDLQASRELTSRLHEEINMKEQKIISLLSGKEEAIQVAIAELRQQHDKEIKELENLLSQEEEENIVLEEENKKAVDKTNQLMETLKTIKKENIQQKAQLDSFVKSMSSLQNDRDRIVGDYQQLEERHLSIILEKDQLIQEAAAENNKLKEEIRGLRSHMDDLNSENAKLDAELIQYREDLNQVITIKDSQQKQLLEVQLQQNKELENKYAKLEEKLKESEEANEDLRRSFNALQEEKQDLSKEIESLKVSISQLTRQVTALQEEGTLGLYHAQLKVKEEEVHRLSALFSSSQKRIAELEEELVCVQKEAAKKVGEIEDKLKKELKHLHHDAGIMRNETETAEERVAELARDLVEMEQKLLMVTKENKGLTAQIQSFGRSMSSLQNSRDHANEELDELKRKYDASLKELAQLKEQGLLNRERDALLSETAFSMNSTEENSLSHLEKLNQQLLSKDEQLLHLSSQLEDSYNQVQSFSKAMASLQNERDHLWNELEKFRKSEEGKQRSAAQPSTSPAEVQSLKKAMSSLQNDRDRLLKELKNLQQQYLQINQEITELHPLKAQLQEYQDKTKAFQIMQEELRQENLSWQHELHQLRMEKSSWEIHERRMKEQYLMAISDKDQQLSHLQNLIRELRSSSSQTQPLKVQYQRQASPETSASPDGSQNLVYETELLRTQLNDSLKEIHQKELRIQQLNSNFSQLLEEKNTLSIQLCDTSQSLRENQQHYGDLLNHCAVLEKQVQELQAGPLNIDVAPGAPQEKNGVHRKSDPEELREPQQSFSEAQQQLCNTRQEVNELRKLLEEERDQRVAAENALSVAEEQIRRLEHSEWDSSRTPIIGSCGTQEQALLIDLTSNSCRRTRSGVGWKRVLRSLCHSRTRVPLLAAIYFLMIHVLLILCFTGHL
T1 sequence (Q13617 whole entry): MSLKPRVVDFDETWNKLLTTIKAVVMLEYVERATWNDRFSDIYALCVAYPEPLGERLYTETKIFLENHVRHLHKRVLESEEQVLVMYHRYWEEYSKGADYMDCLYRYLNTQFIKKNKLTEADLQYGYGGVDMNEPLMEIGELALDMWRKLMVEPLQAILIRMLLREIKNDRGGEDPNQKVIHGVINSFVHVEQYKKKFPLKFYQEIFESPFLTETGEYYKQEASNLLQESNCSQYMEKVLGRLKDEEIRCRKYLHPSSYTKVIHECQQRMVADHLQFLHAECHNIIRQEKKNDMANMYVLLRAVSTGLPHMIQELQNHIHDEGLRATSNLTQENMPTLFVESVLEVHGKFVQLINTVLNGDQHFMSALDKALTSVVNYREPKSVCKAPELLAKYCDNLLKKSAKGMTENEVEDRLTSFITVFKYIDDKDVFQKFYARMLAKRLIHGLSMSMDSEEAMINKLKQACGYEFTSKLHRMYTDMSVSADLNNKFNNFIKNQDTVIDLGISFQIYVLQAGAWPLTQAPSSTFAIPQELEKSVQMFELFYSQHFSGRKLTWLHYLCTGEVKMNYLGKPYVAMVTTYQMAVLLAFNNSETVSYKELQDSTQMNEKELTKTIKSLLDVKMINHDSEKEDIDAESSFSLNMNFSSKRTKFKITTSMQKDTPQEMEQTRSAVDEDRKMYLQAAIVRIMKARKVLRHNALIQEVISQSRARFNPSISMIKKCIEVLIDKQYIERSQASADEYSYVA
T5 sequence (Q8N163 whole entry, one chain of several): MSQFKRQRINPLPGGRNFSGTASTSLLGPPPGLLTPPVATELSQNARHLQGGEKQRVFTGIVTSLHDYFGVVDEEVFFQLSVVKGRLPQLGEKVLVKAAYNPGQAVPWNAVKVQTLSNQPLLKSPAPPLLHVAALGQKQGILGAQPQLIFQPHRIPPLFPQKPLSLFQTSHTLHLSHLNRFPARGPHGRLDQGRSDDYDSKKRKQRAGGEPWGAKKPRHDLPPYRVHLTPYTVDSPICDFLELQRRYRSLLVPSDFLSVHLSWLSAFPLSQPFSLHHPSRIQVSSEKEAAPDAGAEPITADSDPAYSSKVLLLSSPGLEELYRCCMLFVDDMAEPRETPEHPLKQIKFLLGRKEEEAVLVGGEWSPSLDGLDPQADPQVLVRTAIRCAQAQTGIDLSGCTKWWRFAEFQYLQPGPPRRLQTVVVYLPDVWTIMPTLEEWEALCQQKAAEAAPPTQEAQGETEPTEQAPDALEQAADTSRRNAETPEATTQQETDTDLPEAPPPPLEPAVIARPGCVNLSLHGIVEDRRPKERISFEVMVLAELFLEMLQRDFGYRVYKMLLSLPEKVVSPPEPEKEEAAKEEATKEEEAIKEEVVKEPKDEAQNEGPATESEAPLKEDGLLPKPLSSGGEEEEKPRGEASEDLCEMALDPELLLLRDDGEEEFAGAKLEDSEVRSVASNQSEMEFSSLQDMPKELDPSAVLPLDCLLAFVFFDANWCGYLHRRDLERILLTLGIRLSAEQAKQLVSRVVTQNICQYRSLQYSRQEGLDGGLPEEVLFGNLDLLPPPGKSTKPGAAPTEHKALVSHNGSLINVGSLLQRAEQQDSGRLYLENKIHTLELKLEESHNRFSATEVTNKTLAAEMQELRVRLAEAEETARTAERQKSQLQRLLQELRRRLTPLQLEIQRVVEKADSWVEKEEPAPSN

isoTOP-ABPP ratio, lysine Q13617_K489 ([1]; 100 uM_231_sol_in vitro)	isoTOP-ABPP ratio, lysine P22830_K304 ([2]; 100 uM_231_sol_in vitro)	isoTOP-ABPP ratio, lysine Q14789_K103 ([3]; 100 uM_231_sol_in vitro)	isoTOP-ABPP ratio, lysine P61978_K405 ([4]; 100 uM_231_sol_in vitro)	isoTOP-ABPP ratio, lysine Q8N163_K97 ([5]; 100 uM_231_sol_in vitro)	isoTOP-ABPP ratio, lysine Q8N163_K112 ([5]; 100 uM_231_sol_in vitro)	isoTOP-ABPP ratio, lysine P55786_K712 ([6]; 100 uM_231_sol_in vitro)	isoTOP-ABPP ratio, lysine Q6NUQ1_K771 ([7]; 100 uM_231_sol_in vitro)	Structure (SMILES)	isoTOP-ABPP ratio, lysine Q13617_K489 ([1]; 50 uM_231_sol_in vitro)	isoTOP-ABPP ratio, lysine P22830_K304 ([2]; 50 uM_231_sol_in vitro)	isoTOP-ABPP ratio, lysine Q14789_K103 ([3]; 50 uM_231_sol_in vitro)	isoTOP-ABPP ratio, lysine P61978_K405 ([4]; 50 uM_231_sol_in vitro)	isoTOP-ABPP ratio, lysine Q8N163_K97 ([5]; 50 uM_231_sol_in vitro)	isoTOP-ABPP ratio, lysine Q8N163_K112 ([5]; 50 uM_231_sol_in vitro)	isoTOP-ABPP ratio, lysine P55786_K712 ([6]; 50 uM_231_sol_in vitro)	isoTOP-ABPP ratio, lysine Q6NUQ1_K771 ([7]; 50 uM_231_sol_in vitro)
–	–	–	–	–	–	–	–	O=C(CCc1ccc2c(c1)OCO2)Oc1ccc([N+](=O)[O-])cc1[N+](=O)[O-] [fragment 45, 2,4-Dinitrophenyl 3-(benzo[d][1,3]dioxol-5-yl)propanoate]	1.2	1.4	1.0	1.1	0.8	1.2	1.3	1.0
–	–	–	–	–	–	–	–	O=C(ON1C(=O)CCC1=O)c1cc(C(F)(F)F)cc(C(F)(F)F)c1 [fragment 46, 3,5-Bis(trifluoromethyl)benzoic acid NHS ester]	1.0	0.9	1.2	1.1	0.9	1.1	1.3	20.0
1.1	5.3	1.8	1.9	9.4	20.0	1.3	1.1	COC(=O)NC(=NC(=O)OCC1c2ccccc2-c2ccccc21)n1cccn1 [fragment 49, N-Methoxycarbonyl-N′-9-fluorenylmethoxycarbonyl-pyrazole-1-carboxamidine]	–	–	–	–	–	–	–	–
1.0	2.3	1.4	1.3	3.9	4.7	1.6	1.1	CC(C)(C)OC(=O)N=C(NC(=O)OC(C)(C)C)n1cccn1 [fragment 50, reference compound]	–	–	–	–	–	–	–	–
–	–	–	–	–	–	–	–	NC(=O)c1cc(C(F)(F)F)cc(C(F)(F)F)c1 [fragment 51, reference compound]	1.1	0.8	0.9	1.2	0.8	0.8	1.0	0.9
